Measurements published in patent publication US20240360177A1, “PEPTIDES WITH ANTIMICROBIAL ACTIVITIES” (priority 2021, published 2024).
Values after ≈ are worked out from the molar mass of the structure shown. Non-standard residues stand in square brackets, D forms with d. Residues, ends and D or L forms follow the SMILES beside them. Aoc = NCCCCCCCC(=O)O

Assays:
Fusarium spp. = conditions: 48 h
C. glabrata = conditions: 24 h
C. gattii = conditions: 72 h
C. tropicalis = conditions: 24 h
C. krusei = conditions: 24 h
C. dubliniensis = conditions: 24 h
C. auris = conditions: 24 h
C. albicans = conditions: 24 h
C. parapsilosis = conditions: 24 h
C. neoformans = conditions: 72 h
Scedosporium spp. = conditions: 72 h

Compound | MIC Range Fusarium spp. (Fusarium spp.) [mg/L] | MIC C. glabrata (C. glabrata) [mg/L] | MIC Range Lomentospora prolificans (Lomentospora prolificans) [mg/L] | MIC C. gattii (C. gattii) [mg/L] | MIC C. tropicalis (C. tropicalis) [mg/L] | MIC C. krusei (C. krusei) [mg/L] | MIC C. dubliniensis (C. dubliniensis) [mg/L] | MIC C. auris (C. auris) [mg/L] | MIC C. albicans (C. albicans) [mg/L] | MIC C. parapsilosis (C. parapsilosis) [mg/L] | MIC C. neoformans (C. neoformans) [mg/L] | MIC Range Scedosporium spp. (Scedosporium spp.) [mg/L]
CC(=O)N[C@H](CCCNC(=N)N)C(=O)N[C@@H](CCCNC(=N)N)C(=O)N[C@H](CCCNC(=N)N)C(=O)NCCCCCCCC(=O)N[C@H](CCCNC(=N)N)C(=O)N[C@@H](CCCNC(=N)N)C(=O)N[C@H](CCCNC(=N)N)C(=O)NCCCCCCCC(=O)N[C@H](CCCNC(=N)N)C(=O)N[C@@H](CCCNC(=N)N)C(=O)N[C@H](CCCNC(=N)N)C(=O)N[C@@H](CCCNC(=N)N)C(=O)NCCCCCCCC(=O)N[C@H](CCCNC(=N)N)C(=O)N[C@@H](CCCNC(=N)N)C(=O)N[C@H](CCCNC(=N)N)C(=O)N[C@@H](CCCNC(=N)N)C(N)=O [SEQ ID NO: 31, CH3CONH-rRr-(Aoa)-rRr-(Aoa)-rRrR-(Aoa)-rRrR-NH2] (Ac-[dR]R[dR][Aoc][dR]R[dR][Aoc][dR]R[dR]R[Aoc][dR]R[dR]R-NH2) | 0.25 to 4 | 1 (≈ 0.375 µM) | 2 (≈ 0.749 µM) | 0.5 (≈ 0.187 µM) | 0.5 (≈ 0.187 µM) | 0.5 (≈ 0.187 µM) | 1 (≈ 0.375 µM) | 0.5 (≈ 0.187 µM) | 1 (≈ 0.375 µM) | 0.25 (≈ 0.0937 µM) | 0.5 (≈ 0.187 µM) | 0.5 to 2
CC(=O)N[C@H](CCCNC(=N)N)C(=O)N[C@@H](CCCNC(=N)N)C(=O)N[C@H](CCCNC(=N)N)C(=O)N1CCC[C@H]1C(=O)N[C@H](CCCNC(=N)N)C(=O)N[C@@H](CCCNC(=N)N)C(=O)N[C@H](CCCNC(=N)N)C(=O)N1CCC[C@H]1C(=O)N[C@H](CCCNC(=N)N)C(=O)N[C@@H](CCCNC(=N)N)C(=O)N[C@H](CCCNC(=N)N)C(=O)N[C@@H](CCCNC(=N)N)C(=O)N1CCC[C@H]1C(=O)N[C@H](CCCNC(=N)N)C(=O)N[C@@H](CCCNC(=N)N)C(=O)N[C@H](CCCNC(=N)N)C(=O)N[C@@H](CCCNC(=N)N)C(N)=O [SEQ ID NO: 55, CH3CONH-rRr-P-rRr-P-rRrR-P-rRrR-NH2] (Ac-[dR]R[dR]P[dR]R[dR]P[dR]R[dR]RP[dR]R[dR]R-NH2) | 0.25 to 1 | 0.5 (≈ 0.197 µM) | 1 (≈ 0.394 µM) | 1 (≈ 0.394 µM) | 0.5 (≈ 0.197 µM) | 2 (≈ 0.788 µM) | 0.5 (≈ 0.197 µM) | 1 (≈ 0.394 µM) | 1 (≈ 0.394 µM) | 0.25 (≈ 0.0985 µM) | 0.5 (≈ 0.197 µM) | 0.5 to 1
N=C(N)NCCC[C@@H](N)C(=O)N[C@@H](CCCNC(=N)N)C(=O)N[C@H](CCCNC(=N)N)C(=O)N1CCC[C@H]1C(=O)N[C@H](CCCNC(=N)N)C(=O)N[C@@H](CCCNC(=N)N)C(=O)N1CCC[C@H]1C(=O)N[C@H](CCCNC(=N)N)C(=O)N[C@@H](CCCNC(=N)N)C(=O)N[C@H](CCCNC(=N)N)C(=O)N1CCC[C@H]1C(=O)N[C@H](CCCNC(=N)N)C(=O)N[C@@H](CCCNC(=N)N)C(N)=O [SEQ ID NO: 68, rRr-P-rR-P-rRr-P-rR-NH2] (H-[dR]R[dR]P[dR]RP[dR]R[dR]P[dR]R-NH2) | – | 2 (≈ 1.07 µM) | >32 | 2 (≈ 1.07 µM) | 1 (≈ 0.535 µM) | 2 (≈ 1.07 µM) | 0.5 (≈ 0.267 µM) | >32 | 0.25 (≈ 0.134 µM) | 0.5 (≈ 0.267 µM) | 8 (≈ 4.28 µM) | 8 (≈ 4.28 µM)
N=C(N)NCCC[C@@H](N)C(=O)N[C@@H](CCCNC(=N)N)C(=O)N[C@H](CCCNC(=N)N)C(=O)N1CCC[C@H]1C(=O)N[C@H](CCCNC(=N)N)C(=O)N[C@@H](CCCNC(=N)N)C(=O)N[C@H](CCCNC(=N)N)C(=O)N1CCC[C@H]1C(=O)N[C@H](CCCNC(=N)N)C(=O)N[C@@H](CCCNC(=N)N)C(=O)N1CCC[C@H]1C(=O)N[C@H](CCCNC(=N)N)C(=O)N[C@@H](CCCNC(=N)N)C(N)=O [SEQ ID NO: 69, rRr-P-rRr-P-rR-P-rR-NH2] (H-[dR]R[dR]P[dR]R[dR]P[dR]RP[dR]R-NH2) | – | 2 (≈ 1.07 µM) | 32 (≈ 17.1 µM) | 2 (≈ 1.07 µM) | 0.5 (≈ 0.267 µM) | 1 (≈ 0.535 µM) | 0.25 (≈ 0.134 µM) | >32 | 0.25 (≈ 0.134 µM) | 0.5 (≈ 0.267 µM) | 8 (≈ 4.28 µM) | 8 to 16
N=C(N)NCCC[C@@H](N)C(=O)N[C@@H](CCCNC(=N)N)C(=O)N1CCC[C@H]1C(=O)N[C@H](CCCNC(=N)N)C(=O)N[C@@H](CCCNC(=N)N)C(=O)N[C@H](CCCNC(=N)N)C(=O)N1CCC[C@H]1C(=O)N[C@H](CCCNC(=N)N)C(=O)N[C@@H](CCCNC(=N)N)C(=O)N[C@H](CCCNC(=N)N)C(=O)N1CCC[C@H]1C(=O)N[C@H](CCCNC(=N)N)C(=O)N[C@@H](CCCNC(=N)N)C(N)=O [SEQ ID NO: 71, rR-P-rRr-P-rRr-P-rR-NH2] (H-[dR]RP[dR]R[dR]P[dR]R[dR]P[dR]R-NH2) | – | 1 (≈ 0.535 µM) | 8 (≈ 4.28 µM) | 4 (≈ 2.14 µM) | 0.5 (≈ 0.267 µM) | 2 (≈ 1.07 µM) | 1 (≈ 0.535 µM) | >32 | 0.5 (≈ 0.267 µM) | 0.25 (≈ 0.134 µM) | 8 (≈ 4.28 µM) | 4 to 8
N=C(N)NCCC[C@@H](N)C(=O)N[C@@H](CCCNC(=N)N)C(=O)N1CCC[C@H]1C(=O)N[C@H](CCCNC(=N)N)C(=O)N[C@@H](CCCNC(=N)N)C(=O)N[C@H](CCCNC(=N)N)C(=O)N1CCC[C@H]1C(=O)N[C@H](CCCNC(=N)N)C(=O)N[C@@H](CCCNC(=N)N)C(=O)N1CCC[C@H]1C(=O)N[C@H](CCCNC(=N)N)C(=O)N[C@@H](CCCNC(=N)N)C(=O)N[C@H](CCCNC(=N)N)C(N)=O [SEQ ID NO: 72, rR-P-rRr-P-rR-P-rRr-NH2] (H-[dR]RP[dR]R[dR]P[dR]RP[dR]R[dR]-NH2) | – | 1 (≈ 0.535 µM) | 32 (≈ 17.1 µM) | 4 (≈ 2.14 µM) | 0.5 (≈ 0.267 µM) | 2 (≈ 1.07 µM) | 2 (≈ 1.07 µM) | >32 | 2 (≈ 1.07 µM) | 0.25 (≈ 0.134 µM) | 16 (≈ 8.55 µM) | 16 (≈ 8.55 µM)
N=C(N)NCCC[C@@H](N)C(=O)N[C@@H](CCCNC(=N)N)C(=O)N1CCC[C@H]1C(=O)N[C@H](CCCNC(=N)N)C(=O)N[C@@H](CCCNC(=N)N)C(=O)N1CCC[C@H]1C(=O)N[C@H](CCCNC(=N)N)C(=O)N[C@@H](CCCNC(=N)N)C(=O)N[C@H](CCCNC(=N)N)C(=O)N1CCC[C@H]1C(=O)N[C@H](CCCNC(=N)N)C(=O)N[C@@H](CCCNC(=N)N)C(=O)N[C@H](CCCNC(=N)N)C(N)=O [SEQ ID NO: 73, rR-P-rR-P-rRr-P-rRr-NH2] (H-[dR]RP[dR]RP[dR]R[dR]P[dR]R[dR]-NH2) | – | 1 (≈ 0.535 µM) | 32 (≈ 17.1 µM) | 2 (≈ 1.07 µM) | 1 (≈ 0.535 µM) | 2 (≈ 1.07 µM) | 2 (≈ 1.07 µM) | >32 | 1 (≈ 0.535 µM) | 0.5 (≈ 0.267 µM) | 8 (≈ 4.28 µM) | 8 to 16
